# According to paper PMC7435646, “Design, Synthesis and Bioactive Evaluation of Oxime Derivatives of Dehydrocholic Acid as Anti-Hepatitis B Virus Agents” (Molecules, 2020):
# Legend:
# [1] = tested on: HBeAg; assay: Inhibition of HBeAg secretion (ELISA) in HepG2.2.15 cells; format: cell-based, hepatitis B virus (HBV); settings: for IC50: Hepatitis B virus, HepG2.2.15, 216 h, read-out: HBeAg IC50; for HBeAg IC50: ELISA, nine day treatment, mean ± S.D. (n = 3), '-' = inhibition ratio less than 50% in the test concentration range; for HBeAg SI: SI (selectivity index) = CC50/IC50; for inhibition of HBV in vitro assay: in vitro assay (Table S1)
# Experimental: HepG2.2.15 cells were kindly provided by the Chinese Academy of Medical Sciences (Beijing, China), derived from human hepatoma cell line G2. […] The compounds were diluted to the desired concentrations in culture medium. […] Every three days in a nine day period, supernatant of each well was replaced with compound-containing fresh medium.
# (§1) The levels of HBeAg and HBsAg in the supernatant of the cells were measured using ELISA assay following the manufacturer’s protocol (Shanghai Kehua Bio-engineering Co., Ltd., Shanghai, China).
# [2] = tested on: HBsAg; assay: Inhibition of HBsAg secretion (ELISA) in HepG2.2.15 cells; format: cell-based, hepatitis B virus (HBV); settings: for IC50: Hepatitis B virus, HepG2.2.15, 216 h, read-out: HBsAg IC50; for HBsAg SI: SI (selectivity index) = CC50/IC50
# Experimental: (§2) HepG2.2.15 cells were kindly provided by the Chinese Academy of Medical Sciences (Beijing, China), derived from human hepatoma cell line G2. These cells were cultured in Dulbecco’s Modified Eagle’s Medium (DMEM), supplemented with 10% fetal bovine serum (FBS), 1.5 g/L of sodium bicarbonate, 10 mL/L of penicillin, and streptomycin, respectively, and 200 mg/L of G418 at 37 °C under 5% carbon dioxide in a 95–98% humidity. The compounds were diluted to the desired concentrations in culture medium. Before treated with various concentrations of compounds, cells were seeded at a density of 1 × 10^5 cells/mL in 96-well plates and incubated for 24 h at 37 °C. Every three days in a nine day period, supernatant of each well was replaced with compound-containing fresh medium.
# as §1, with “China). The synthesized compounds were expressed as the concentration that achieved 50% inhibition (IC50) to the secretion of HBeAg and HBsAg.” for “China).”
# [3] = Cytotoxicity by MTT assay in HepG2.2.15 cells; format: cell-based; settings: human, 50% cytotoxicity concentration in HepG 2.2.15 cells, mean ± S.D. (n = 3)
# Experimental: as §2
# The cytotoxicity activity of the synthesized compounds was determined by MTT assay. After refreshing the supernatant, 20 μL MTT (5 mg/mL) was added to each well, which was further cultured for 4 h at 37 °C. Then the supernatant of each well was carefully removed, formazan crystals were dissolved in […] of DMSO and the absorbance at 450 nm was recorded. Cytotoxicity of these compounds was expressed as the concentration of compound required to kill 50% (CC50) of the HepG2.2.15 cells.
# [4] = HepG2.2.15 cells, result in words
Structure (SMILES),IC50 [1],IC50 [2],HBsAg SI [2],CC50 at 9 days [3],HBeAg IC50 ([1]; HepG2.2.15 cells),melting point,HBeAg SI [1],"activity against the secretion of HBeAg [1, 4]",inhibition of HBV in vitro assay ([1]; result in words),"activity against the secretion of HBsAg [2, 4]"
"C=C1[C@H](CO)[C@@H](O)C[C@@H]1n1cnc2c(=O)[nH]c(N)nc21 [ETV, Entecavir, reference compound]",247 ± 50 µM,161 ± 35.9 µM,3.72,600 ± 23.4 µM,,,,,,
"CC(CCC(=O)O)C1CCC2C3C(=O)CC4CC(=NO)CCC4(C)C3CC(=O)C12C (stereo not drawn) [Compound 0-1, (E)-3-(hydroxyimino)-7,12-dioxolcholanic acid]",,,,> 1000 µM,- (The inhibition ratio less than 50% in the test concentration range),250.4 to 252.4 °C,,,,
"C[C@H](CCC(=O)OCc1ccco1)[C@H]1CC[C@H]2[C@@H]3C(=O)CC4C/C(=N/OCc5ccccc5)CC[C@]4(C)[C@H]3CC(=O)[C@]12C (stereo partly drawn) [Compound 2c-2, Furan-2-ylmethyl (E)-3-((benzyloxy)imino)-7,12-dioxocholanoate]",151 ± 32.1 µM,464 ± 20.1 µM,0.22,101 ± 10.7 µM,,131.5 to 133.5 °C,0.67,,,
"C[C@H](CCC(=O)O)[C@H]1CC[C@H]2[C@@H]3C(=O)C[C@@H]4CC(=O)CC[C@]4(C)[C@H]3CC(=O)[C@]12C [DHCA, Dehydrocholic acid]",,,,> 1000 µM,- (The inhibition ratio less than 50% in the test concentration range),,,no activity,did not exhibit inhibition,no activity
"C[C@H](CCC(=O)OCc1ccc2c(c1)OCO2)[C@H]1CC[C@H]2[C@@H]3C(=O)CC4C/C(=N/OCc5ccccc5)CC[C@]4(C)[C@H]3CC(=O)[C@]12C (stereo partly drawn) [Compound 2b-2, 3,4-Methylenedioxybenzyl (E)-3-((benzyloxy)imino)-7,12-dioxocholanoate]",,,,728 ± 45.2 µM,- (The inhibition ratio less than 50% in the test concentration range),124.3 to 126.3 °C,,,,
"C[C@H](CCC(=O)OCc1ccccc1)[C@H]1CC[C@H]2[C@@H]3C(=O)CC4C/C(=N/OCc5ccccc5)CC[C@]4(C)[C@H]3CC(=O)[C@]12C (stereo partly drawn) [Compound 2a-2, Benzyl (E)-3-((benzyloxy)imino)-7,12-dioxocholanoate]",249 ± 47.6 µM,,,211 ± 17.1 µM,,135.3 to 137.3 °C,0.85,,,
"C[C@H](CCC(=O)OCc1ccco1)[C@H]1CC[C@H]2[C@@H]3C(=O)CC4C/C(=N/O)CC[C@]4(C)[C@H]3CC(=O)[C@]12C (stereo partly drawn) [Compound 2c-1, Furan-2-ylmethyl (E)-3-(hydroxyimino)-7,12-dioxocholanoate]",111 ± 28.3 µM,300 ± 15.3 µM,0.52,155 ± 30.8 µM,,193.2 to 195.2 °C,1.40,,,
"CC(CCC(=O)O)C1CCC2C3C(=O)CC4CC(=NOCc5ccccc5)CCC4(C)C3CC(=O)C12C (stereo not drawn) [Compound 0-2, (E)-3-((benzyloxy)imino)-7,12-dioxolcholanic acid]",119 ± 1.86 µM,,,470 ± 6.35 µM,,198.5 to 200.5 °C,3.95,,,
C[C@H](CCC(=O)O)[C@H]1CC[C@H]2[C@@H]3[C@H](O)C[C@@H]4C[C@H](O)CC[C@]4(C)[C@H]3C[C@H](O)[C@]12C [Cholic acid],,,,,,,,,did not exhibit inhibition,
"C[C@H](CCC(=O)OCc1ccccc1)[C@H]1CC[C@H]2[C@@H]3C(=O)CC4C/C(=N/O)CC[C@]4(C)[C@H]3CC(=O)[C@]12C (stereo partly drawn) [Compound 2a-1, Benzyl (E)-3-(hydroxyimino)-7,12-dioxocholanoate]",229 ± 12.8 µM,630 ± 35 µM,0.60,378 ± 25.3 µM,,199.2 to 201.2 °C,1.65,,,
"CO/N=C1\CC[C@@]2(C)C(CC(=O)[C@H]3[C@@H]4CC[C@H]([C@H](C)CCC(=O)OCc5ccc6c(c5)OCO6)[C@@]4(C)C(=O)C[C@@H]32)C1 (stereo partly drawn) [Compound 2b-3, 3,4-Methylenedioxybenzyl (E)-3-(methoxyimino)-7,12-dioxocholanoate]",49.4 ± 12.8 µM,,,545 ± 28.9 µM,,118.7 to 120.7 °C,11.03,,,
"C[C@H](CCC(=O)OCc1ccc2c(c1)OCO2)[C@H]1CC[C@H]2[C@@H]3C(=O)CC4C/C(=N/O)CC[C@]4(C)[C@H]3CC(=O)[C@]12C (stereo partly drawn) [Compound 2b-1, 3,4-Methylenedioxybenzyl (E)-3-(hydroxyimino)-7,12-dioxocholanoate]",96.6 ± 29 µM,,,> 1000 µM,,182.5 to 184.5 °C,10.35,,,
"CON=C1CCC2(C)C(CC(=O)C3C2CC(=O)C2(C)C(C(C)CCC(=O)O)CCC32)C1 (stereo not drawn) [Compound 0-3, (E)-3-(methoxyimino)-7,12-dioxolcholanic acid]",,,,> 1000 µM,- (The inhibition ratio less than 50% in the test concentration range),197.2 to 199.2 °C,,,,
"CO/N=C1\CC[C@@]2(C)[C@H](CC(=O)[C@@H]3[C@@H]2CC(=O)[C@]2(C)[C@@H]([C@H](C)CCC(=O)OCc4ccccc4)CC[C@@H]32)C1 [Compound 2a-3, Benzyl (E)-3-(methoxyimino)-7,12-dioxolcholanoate]",188 ± 9.51 µM,,,169 ± 5.75 µM,,132.6 to 134.6 °C,0.90,,,
"CO/N=C1\CC[C@@]2(C)C(CC(=O)[C@H]3[C@@H]4CC[C@H]([C@H](C)CCC(=O)OCc5ccco5)[C@@]4(C)C(=O)C[C@@H]32)C1 (stereo partly drawn) [Compound 2c-3, Furan-2-ylmethyl (E)-3-(methoxyimino)-7,12-dioxocholanoate]",105 ± 22.2 µM,181 ± 52.8 µM,0.50,90.9 ± 15.6 µM,,122.3 to 124.3 °C,0.86,,,
